“Also recorded” adds a separate entry of the source. Read-outs that look alike come from different tables or passages of the source.
Tests used:
[1] = tested on: IFN-α response against the HCV replicon; format: cell-based, human; settings: for viral RNA levels versus cells treated with IFN-α alone: 5 μM lactacystin or 1 μM epoxomicin 1 h before IFN-α for 6 h, both time points; for IFN response against HCV when inhibitor is added after induction: IFN-α for 10 h, then inhibitor for 12 h; for reduction of HCV RNA levels by IFN-α in the presence of proteasome inhibitor: inhibitor 1 h before IFN-α 100 IU/ml for 6 h, then 12 h
KUNCD20 cells = test: Cell death in IFN-α-treated KUNCD20 cells, light microscopy or annexin V staining; format: cell-based, Homo sapiens (human)
From the text: To address this problem, the IFN response against HCV in SL1 cells was compared with that against the flavivirus Kunjin virus in HeLa cells. For this purpose a pool of HeLa cells, KUNCD20, expressing Kunjin virus subgenomic replicons lacking the structural genes, similar to the HCV subgenomic replicons was established (Khromykh, A. A., and E. G. Westaway. 1997. J. Virol. 71:1497-1505). The Kunjin virus RNA levels in these cells were approximately fivefold higher than those observed with HCV in SL1 cells. […] Importantly, cell death in IFN-α-treated KUNCD20 cells was not detected either by light microscopy or annexin V staining (results not shown).

SL1 cells = format: cell-based, Homo sapiens (human)
eIF-2α = format: cell-based, human; settings: Huh7, GS4.1, HeLa, SL1 cells; 100 IU of IFN-α/ml 12 h; poly(I:C) transfection 3 h
IFN-β gene = format: cell-based, human; settings: for expression of IFN-β: IFN-α alone
HCV subgenomic replicons [2] = format: cell-based
HCV = HCV genotypes 2 and 3; cited from earlier work
HCV subgenomic replicons [3] = format: cell-based; remark: listed apart in the source
Kunjin virus replicons = format: cell-based; settings: KUNCD20 cells, 0.01 to 160 IU of IFN-α/ml, 72 h
Mx-1 gene = format: cell-based, human; settings: GS4.1 cells, with IFN-α

C[S+]([O-])c1ccc(-c2nc(-c3ccncc3)c(-c3ccc(F)cc3)[nH]2)cc1 (stereo not shown) [SB 203580]
inhibition of the IFN-α response against HCV replicon ([1]; GS4.1 (Huh7) cells): did not inhibit the IFN response at detectable levels

IFN-α
cell death (KUNCD20 cells): not detected
apoptosis after IFN-α treatment (HeLa cells; normal HeLa cells): did not undergo apoptosis
cell death (SL1 cells; SL1 and other HeLa derived cell lines, more than 30 IU of IFN-α/ml, between 6 and 20 h post treatment): induced cell death in a significant fraction of cells
fraction of apoptotic cells (annexin V-FITC positive) (SL1 cells; SL1 cells, 100 IU of IFN-α/ml, 24 h, flow cytometry): more than 30%
eIF-2α-P levels (eIF-2α): did not induce eIF-2α-P levels
expression of IFN-β (IFN-β gene; HeLa cells): not in HeLa cells
expression of IFN-β (IFN-β gene; SL1 cells): could be induced
IC50 of IFN-α (reduction of virus replication) (HCV subgenomic replicons [2]; HeLa cell lines such as SL1, 72 h): ~0.1 IU/ml
fold lower IC50 in HeLa cell lines than in Huh7-derived cell lines (HCV subgenomic replicons [2]; HeLa vs Huh7-derived cell lines): approximately 10 fold
response to IFN-α therapy (HCV): ≤ 80%
drop of HCV RNA levels (HCV subgenomic replicons [3]; GS4.1 cells, IFN-α 100 IU/ml for 6 h, within 18 h): 70%
Kunjin virus replicon RNA, inhibition of viral replication (Kunjin virus replicons): only slightly inhibited viral replication

Nc1ncc2[nH]cnc2n1 [2-AP, 2-aminopurine]
apoptosis (HeLa cells; HeLa cells, treatment for more than 12 h): induced apoptosis
inhibition of the IFN-α response against HCV replicon ([1]; GS4.1 (Huh7) cells): did not block the IFN response against HCV; also recorded: no measurable effect on the IFN response against the HCV replicon

Nc1nc(=O)n([C@@H]2O[C@H](CO)[C@@H](O)[C@H]2O)cc1O [5-OH-cytidine]
HCV RNA band intensity, antiviral activity (HCV subgenomic replicons [2]; SL1 (HeLa) cells, indicated amounts, 72 hours): effectively inhibits HCV replication
HCV RNA band intensity, antiviral activity (HCV subgenomic replicons [3]; GS4.1 (Huh7) cells, indicated amounts, 72 hours): effectively inhibits HCV replication

O=c1c(-c2ccc(O)cc2)coc2cc(O)cc(O)c12 [Genistein, genistein]
induction of IFN-induced Mx-1 (Mx-A) mRNA (Mx-1 gene): suppressed the induction of the IFN-induced Mx-1 gene
inhibition of the IFN-α response against HCV replicon ([1]; GS4.1 (Huh7) cells): antagonized the IFN-α response against the HCV replicon
inhibition of the IFN response against HCV at increased drug concentration ([1]; GS4.1 cells, concentration raised from 100 to 300 μM): complete inhibition of the IFN response against HCV

O=C([O-])c1ccccc1O.[Na+] [Sodium salicylate, sodium salicylate]
inhibition of the IFN-α response against HCV replicon [1]: did not inhibit the IFN response at detectable levels

C[C@@]1(O)[C@H](O)[C@@H](CO)O[C@H]1n1cnc2c(N)ncnc21 [2CMA, 2′-C-methyladenosine]
viral RNA (vRNA), anti-HCV activity (HCV subgenomic replicons [2]; SL1 (HeLa) cells, 10 μM, harvested at 6, 12, 24, 48, 72 hours): effectively inhibits HCV
viral RNA (vRNA), anti-HCV activity (HCV subgenomic replicons [3]; GS4.1 (Huh7) cells, 10 μM, harvested at 6, 12, 24, 48, 72 hours): effectively inhibits HCV

CC[C@H](C)[C@H](NC(=O)[C@H]([C@@H](C)CC)N(C)C(C)=O)C(=O)N[C@H](C(=O)N[C@@H](CC(C)C)C(=O)[C@@]1(C)CO1)[C@@H](C)O [Epoxomicin]
induction of IFN-induced Mx-1 (Mx-A) mRNA (Mx-1 gene): did not inhibit induction of Mx-A
viral RNA levels versus cells treated with IFN-α alone ([1]; GS4.1 cells): significantly higher
IFN response against HCV when inhibitor is added after induction ([1]; GS4.1 cells): the IFN response against HCV remained effective
reduction of HCV RNA levels by IFN-α in the presence of proteasome inhibitor ([1]; GS4.1 cells): 30%

CC(=O)N[C@@H](CSC(=O)[C@]1([C@@H](O)C(C)C)NC(=O)[C@H](C)[C@@H]1O)C(=O)O [Lactacystin, lactacystin]
induction of IFN-induced Mx-1 (Mx-A) mRNA (Mx-1 gene): did not inhibit induction of Mx-A
viral RNA levels versus cells treated with IFN-α alone ([1]; GS4.1 cells): significantly higher
IFN response against HCV when inhibitor is added after induction ([1]; GS4.1 cells): the IFN response against HCV remained effective
reduction of HCV RNA levels by IFN-α in the presence of proteasome inhibitor ([1]; GS4.1 cells): 30%
HCV RNA levels, drug alone (HCV subgenomic replicons [3]; GS4.1 cells, higher doses, without IFN-α): slight reduction of HCV RNA levels

C[C@@H]1C[C@@H]([C@H](O)CC2CC(=O)NC(=O)C2)C(=O)[C@@H](C)C1 [Cycloheximide]
inhibition of the IFN-α response against HCV replicon ([1]; GS4.1 (Huh7) cells): decline of viral RNA levels was reduced

ZVAD-fluoromethyl ketone [ZVAD-FMK]
prevention of IFN-α-induced cell death (apoptosis) (SL1 cells; SL1 cells, 100 IU of IFN-α/ml with 20 μM ZVAD-FMK): could be prevented

poly(I:C)
eIF-2α-P levels (eIF-2α): augmented eIF-2α-P levels
IFN-β transcription (IFN-β gene; HeLa and SL1 cells, poly(I:C) alone): induced
induction of IFN-β mRNA (IFN-β gene; Huh7, GS4.1 and other Huh7-derived cells, primed with IFN-α then transfected with poly(I:C)): only a weak induction of IFN-β was observed
